Columns and labels:
[1] = tested on: HT29 cells; assay: Cellular localisation of Pt (fractionation, ICP-MS); assay type: cell-based; settings: HT29, 3 µM, 24 h
Method: (§1) MDA−MB−231 and HT29 cells were seeded at a final concentration of 10^6 cells/well in 6-well plates and incubated overnight. Cells were then treated with 3 µM of either Pt^II or Pt^IV complexes for 24 h. The media was next removed, and cells were washed three times with ice-cold PBS. Then the cells were trypsinised. The isolation of individual fractions was carried out using the Fraction-PREP Cell Fractionation kit (ab288085, Abcam, Cambridge, MA, USA). The cell pellet was resuspended in ice-cold PBS and moved to Eppendorf tubes to spin for 5 min at 700× g and supernatant was removed. The pellet was then resuspended in 400 µL of cytosol extraction buffer mix and incubated for 20 min on ice. Next, samples were centrifuged at 700× g for 10 min and the supernatant was collected as the cytosolic fraction. The pellet was then resuspended in 400 µL of ice-cold membrane A extraction buffer mix and vortexed for 10 s, after which membrane B extraction buffer mix was added and incubated on ice for 1 min. The sample was then vortexed and centrifuged for 5 min at 1000× g. […] The pellet was then resuspended in 200 µL of ice-cold nuclear extraction buffer, vortexed for 20 s and then incubated on ice for 40 min with constant vortexing every 10 min. The samples were then centrifuged for 10 min at maximum speed. […] Platinum cell localisation was then measured via ICP-MS, as described in Section 2.5.

[2] = tested on: MDA−MB−231 cells; assay: as above; assay type: cell-based; settings: MDA−MB−231, 3 µM, 24 h
Method: as §1

N.N.[Cl][Pt][Cl] [Cisplatin, cisplatin]
subcellular fraction with main platinum accumulation [1]: membrane/particulate fraction | subcellular fraction with main platinum accumulation [2]: membrane/particulate fraction

From paper PMC11274883, “Anticancer Effect of Pt^[sequence], Pt^II5MESS, Pt^II56MESS and Their Platinum(IV)-Dihydroxy Derivatives against Triple-Negative Breast Cancer and Cisplatin-Resistant Colorectal Cancer” (Cancers, 2024)
